Assay results published in patent US20260250269A1, “APOPTOSIS INHIBITOR SALTS FOR CANCER” (priority 2022, published 2026).

What was measured:
[1] = pH of about 7.4
[2] = test system: Caspase-3; experiment: Caspase-3 protein expression in xenografted SU-DHL-10 tumor (Western blot); type: in vivo, mouse; details: Form A, single i.m. injection 11.2 mg/kg, 24 hours post dosing, versus vehicle
Protocol: The pamoate was administrated via single intramuscular (i.m.) injection to SU-DHL-10 xenografted mice to examine the effect of the pamoate on c-Myc expression level in tumor at the 24-hour time point post injection.
The pamoate was mixed with appropriate volume of vehicle solution (0.5% carboxymethylcellulose sodium (CMC-Na, viscosity 400-800 cps, CAS No. 9004-32-4, Sigma-Aldrich, USA) and 0.2% Tween-80 in 10 mM pH 7.4 phosphate buffer saline (PBS)) to get a uniform suspension after 15 min sonication, with final concentration of 5.6 mg/mL. The dose volume was determined by the mice′ body weight collected on the morning of dosing day, calculated by the formula: dose volume (2 mL/kg)×body weight.
Human diffuse large B cell lymphoma cell line SU-DHL-10 was obtained from Cobioer Biotechnology Co., Ltd (China). […]
The tumor was excised with scissors, resuspended in cold cell lysis buffer containing 20 mM Tris (pH7.5), 150 mM NaCl, 1% Triton X-100, 2 mM AEBSF, […] Aprotinin, 130 μM Bestatin, 14 μM E64, 10 μM Leupeptin, 5 mM sodium fluoride, 1 mM sodium pyrophosphate, 1 mM β-glycerophosphate and 1 mM sodium orthovanadate, and then homogenized with handheld homogenizer (Beyotime, China). […] Protein contents were determined using Micro BCA™ Protein Assay Kit (23235, Thermo Scientific, USA). […] Visualization was carried out using the Enhanced Chemi-luminescence Kit (Beyotime, China).

[3] = Body weight in SU-DHL-10 xenografted mice; details: for Mean Body Weight ± SEM: Group 4: Form A, 11.2 mg/kg i.m. Day 0, 7, 14
[4] = Photostability test (ICH Option 1, ID65 light)
Protocol: Purity via HPLC, XRPD, and appearance inspection were performed before and after light exposure to determine photostability of the two compounds.
Light source—ICH Option 1 light source standard was adopted. ID65 light, equivalent indoor indirect daylight standard, with 250 W/m^2 light source intensity was used.
Total light exposure and light exposure time−total light exposure was set to 1.44 million lux light quantity (1000 lux×24 h×60 d=1,440,000 lux light quantity). Light stability testing box with ID65 light source of 250 W/m^2 intensity was adopted. According to ICH Option 1 standard, 21.8 hours light exposure could reach 1.2 million lux light quantity. Therefore, 26.2 hours light exposure is needed to reach 1.44 million lux quantity.
Testing—Accurately weight 0.5 g of the monobromide and the pamoate, place in petri dishes (covered with clear wrap film) and spread into a layer no more than 3 mm thickness, separately. Samples were put into light stability testing box, and received total amount of light exposure not less than 1.44 million lux light quantity (ID65 light, 250 W/m^2, 26.2 hours, 25° C., 60% relative humidity). After light exposure, samples were removed for characterization, including appearance inspection, XRPD and purity via HPLC.

[5] = test system: SU-DHL-10 human diffuse large B cell lymphoma xenograft; experiment: Anti-tumor activity against SU-DHL-10 xenograft; type: in vivo, BALB/c nude mice
Protocol: For the monobromide continuous i.v. infusion group, the monobromide was dissolved with physiological saline to prepare 12.12 mg/mL clear solution.
For the monobromide i.p. injection group, the monobromide was dissolved with physiological saline to prepare 0.41 mg/mL clear solution. The dose volume was determined by the mice′ body weight collected on the morning of dosing day, calculated by the formula: dose volume (10 mL/kg)×body weight.
For the pamoate i.m. injection group, the pamoate salt was mixed with appropriate volume of vehicle solution (0.5% CMC-Na (viscosity 400-800 cps, CAS No. 9004-32-4), 0.2% Tween-80 in 10 mM pH 7.4 PBS saline) to get a uniform suspension after 15 min sonication, with final concentration of 5.6 mg/mL, similar to the procedure described in Example 14. The dose volume was determined by the mice′ body weight collected on the morning of dosing day, calculated by the formula: dose volume (2 mL/kg)×body weight.
Human diffuse large B cell lymphoma cell line SU-DHL-10 was obtained from Cobioer Biotechnology Co., Ltd (China). The cells were cultured at 37° C. with 5% CO2 in RPMI-1640 (Hyclone, USA) supplemented with 10% heat inactivated fetal bovine serum (Gibco, USA) and 1% GlutaMAX (Gibco, USA). The cells were collected, suspended in PBS at 2×10^8 cells/mL, and then mixed with the equivalent volume of Matrigel® Basement Membrane Matrix (Corning, USA).
Six-week-old female BALB/c-nude mice were purchased from SPF Biotechnology Co., Ltd. (Beijing, China). They were maintained on a standard diet and water throughout the experiments under specific pathogen-free conditions. The cells were cultured in vitro and 0.1×10^8 cells/0.1 mL/mouse were grafted subcutaneously into the flank of NOD-SCID (NVSG) mice (Beijing Viewsolid Biotech Co. LTD), 6-week-old. When the tumor reached about 1 cm in diameter, tumor-bearing mice were sacrificed and tumors were removed and sliced into small fragments (approximately 3×3×3 mm^3/fragment) and re-inoculated into BALB/c nude mice. The mice with a tumor volume (length×width^2×0.5) of 99.28 to 247.10 mm^3 were divided into four groups randomly, using Study Director Software (Studylog Systems, Inc, Version 3.1.399.22, USA) to minimize intragroup and intergroup tumor volume variation.
The first day of administration was designated day 0, and observation continued until day 35. Each group was treated as follows (Table 15).
The vehicle control group received i.m. injection of vehicle solution on day 0, 7 and 14 (Group 1). For 21-day continuous i.v. infusion, an osmotic pump containing the monobromide was implanted in the dorsum of each animal while under anesthesia on day 0, with daily dose of […], approximately 1.6 mg/kg/day (Group 2). The monobromide i.p. injection group was administrated referring to FIVE-DAY-ON, TWO-DAY-OFF procedure on day 0-4, 7-11 and 14-18 (Group 3) per Minoda et. al, Antitumor effect of YM155, a novel small-molecule survivin suppressant, via mitochondrial apoptosis in human MFH/UPS, International Journal of Oncology, 2015, 47:891-899. For the pamoate i.m. injection group, drug suspension was administrated once per week at 11.2 mg/kg, approximately 7 times daily dosage of the monobromide i.v. infusion group, on day 0, 7 and 14 (Group 4).

[6] = ID65 light, 250 W/m^2, 25° C./60% RH (ICH Option 1), 26.2 hours
[7] = Initial, irradiation time 0 hours
[8] = Group 4: Form A, 11.2 mg/kg i.m. Day 0, 7, 14, Day 21
[9] = Group 4: Form A, 11.2 mg/kg i.m. Day 0, 7, 14, Day 35

Q: Which results are given for `COCCn1c2c([n+](Cc3cnccn3)c1C)C(=O)c1ccccc1C2=O.COCCn1c2c([n+](Cc3cnccn3)c1C)C(=O)c1ccccc1C2=O.O=C([O-])c1cc2ccccc2c(Cc2c(O)c(C(=O)[O-])cc3ccccc23)c1O` [pamoate salt]?
A: Aqueous solubility [1]: less than 0.02 mg/mL; Cleaved Caspase-3 expression in tumors [2]: increased; Full length Caspase-3 expression in tumors [2]: decreased; Mean Body Weight ± SEM ([3]; Day 21): 21.43 ± 0.35 ^N.S. g; Mean Body Weight ± SEM ([3]; Day 35): 22.65 ± 0.30 ^N.S. g; Body weight decrease (in words) ([3]; each group (Groups 2-4), until day 35): no statistically significant decrease in body weight; Photostability (in words) ([4]; ICH Option 1 irradiation, 26.2 hours): excellent photostability; Description [4, 6]: Purple; Purity % (HPLC) [4, 6]: 99.38%; XRPD [4, 6]: Consistent; Description [4, 7]: Purple; Purity % (HPLC) [4, 7]: 99.29%; Change in the appearance, XRPD and HPLC purity ([4]; after ICH Option 1 irradiation, 26.2 hours): no significant change; Mean Tumor Volume ± SEM ([5]; Group 4: Form A, 11.2 mg/kg i.m. Day 0, 7, 14, Day 0): 151.26 ± 23.65 mm^3; Mean Tumor Volume ± SEM ([5]; Group 4: Form A, 11.2 mg/kg i.m. Day 0, 7, 14, Day 7): 0.00 ± 0.00 mm^3; Antitumor Activity, percent inhibition of tumor growth (% inh) [5, 8]: 118.27%; Antitumor Activity, percent regression of the tumor (% reg) [5, 8]: 100%; Mean Tumor Volume ± SEM [5, 8]: 0.00 ± 0.00 mm^3; Mean Tumor Volume ± SEM ([5]; Group 4: Form A, 11.2 mg/kg i.m. Day 0, 7, 14, Day 28): 23.61 ± 23.61 **^, N.S., $ mm^3; Antitumor Activity, percent inhibition of tumor growth (% inh) [5, 9]: 98.22%; Antitumor Activity, percent regression of the tumor (% reg) [5, 9]: −19.21%; Mean Tumor Volume ± SEM [5, 9]: 180.32 ± 101.25 **^, N.S., $ mm^3; Number of CRs (complete response) [5, 9]: 3/6; Safety and efficacy (in words) ([5]; SU-DHL-10 xenograft tumor model): good safety and efficacy
